≈ marks a conversion by molar mass, not a printed value.
Tests used:
[1] = Franz cell porcine skin permeation, ToF-SIMS tape strip analysis; type: in vitro ADME, pig; details: for evidence of permeation (key findings): porcine skin, ToF-SIMS imaging and tape stripping, with or without Nanocin
[2] = test system: IL-8 release, THP-1 cells; test: LPS-stimulated IL-8 release in THP-1 cells (inflammation assay); type: cell-based, human; details: for MIC (inhibiting the LPS IL-8 response): API dose range 0-30 ug/ml; for potency at inhibiting the LPS inflammatory response (in words): IL-8, dose range 0-30 ug/ml
[3] = Solubility of APIs in ethanol & water vehicles; type: physicochemical; details: for Solubility in water and ethanol (in words): comparison among the screened APIs
[4] = test system: TNF-α release, THP-1 cells; test: LPS-stimulated TNF-α release in THP-1 cells (inflammation assay); type: cell-based, human; details: final concentration 1 or 0.1 ug/ml; normalised with cell count
Description: The release of cytokines (looking particularly at those associated with inflammation-TNF-α, IL-8, IL-1α) after stimulation with lipopolysaccharide (LPS) is a valid model system to test compounds for potential anti-inflammatory effects (Reference 1)
To standardise conditions for the assay, a LPS dose (0-1 ug/ml) was investigated on TNF-α, IL-8 and IL-1α response, over a time period from 2, 4 and 24 hours.
A 1:1 mg/ml (Nanocin:API) was initially formulated in 20% ethanol and the stock formulation was then diluted down with serum free media and tested at a final concentration of 1 or 0.1 ug/ml.

[5] = Franz cell porcine skin permeation, ToF-SIMS cross sectional analysis; type: in vitro ADME, pig; details: cross sections; 1 mg/ml Diclofenac; partial embedding
Description: The experimental work involved applying various formulations to the skin in a Franz cell, leaving it for 24 hours as an infinite dose. Initial formulations were 1 mg/ml Nanocin and 300 ug/ml API in 20% ethanol. The same concentration of formulation were also used using FITC labelled Nanocin. Methods of detection was by: Franz Cell Method 1: Full OCT Embedding Method and Cryo-Sectioning; Franz Cell Method 2: Partial OCT Embedding and Cryo-Sectioning; Franz Cell Method 3: Partial OCT Embedding and Tape Stripping; and Time-of-Flight Secondary Ion Mass Spectrometry (ToF-SIMS) Fluorescence Microscopy.
Porcine ears used for the Franz cell analysis were sourced from a local abattoir. The age of the pig slaughtered were between 4-6 months old. The ears were cleaned with deionised water and the outside skin was carefully removed from the underlying cartilage. The excised skin was then stored at −20° C. until use. All ears used for the permeation experiment were within 6 months after procurement.
Prior to setting up the Franz cells, the skin was defrosted by leaving it at room temperature and pressure. Excess hairs on the porcine skin were not trimmed in this instance (to promote capacity to identify follicular delivery). […]

Structure (SMILES)	evidence of permeation (key findings) [1]	MIC (inhibiting the LPS IL-8 response) ([2]; THP-1 cells, 24 h)	potency at inhibiting the LPS inflammatory response (in words) ([2]; THP-1 cells)	Solubility in water and ethanol (in words) [3]	further results
CO[C@H]1C[C@@H]2CC[C@@H](C)[C@@](O)(O2)C(=O)C(=O)N2CCCC[C@H]2C(=O)O[C@H]([C@H](C)C[C@@H]2CC[C@@H](O)[C@H](OC)C2)CC(=O)[C@H](C)/C=C(\C)[C@@H](O)[C@@H](OC)C(=O)[C@H](C)C[C@H](C)/C=C/C=C/C=C/1C [Rapamycin]	no evidence	1 µg/mL (≈ 1.09 µM)			
C=CC[C@@H]1/C=C(\C)C[C@H](C)C[C@H](OC)[C@H]2O[C@@](O)(C(=O)C(=O)N3CCCC[C@H]3C(=O)O[C@H](/C(C)=C/[C@@H]3CC[C@@H](O)[C@H](OC)C3)[C@H](C)[C@@H](O)CC1=O)[C@H](C)C[C@@H]2OC [Tacrolimus]	no evidence	0.3 µg/mL (≈ 0.373 µM)	more potent than Ibuprofen		Solubility ([3]; 10 mg/ml API solution, 10% ethanol): x(better); anti-inflammatory effect, IL-8 normalised with cell count ([2]; 30 ug/ml API, 10 ug/ml LPS, 24 h): more effective anti-inflammatory
CC(C)Cc1ccc(C(C)C(=O)O)cc1 (stereo not drawn) [Ibuprofen]	no evidence			better solubility	effect on reducing the IL-8 release ([2]; 30 ug/ml API, LPS 24 h, THP-1 cells): very little effect
Cc1ccc(-c2cc(C(F)(F)F)nn2-c2ccc(S(N)(=O)=O)cc2)cc1 [Celecoxib]				insolubility	
O=C(O)Cc1ccccc1Nc1c(Cl)cccc1Cl [Diclofenac]		1 µg/mL (≈ 3.38 µM)	more potent than Ibuprofen	most soluble	LPS-stimulated TNF-α response [4]: reduced; presence of NaCl2— and Na2Cl3— ions (diclofenac markers) ([1]; tape strips 1-3, 1 mg/ml Diclofenac): none; LPS-stimulated IL-8 response ([2]; final concentration 1 or 0.1 ug/ml, normalised with cell count): reduced; intensity of Cl—, NaCl2- and Na2Cl3- markers in the stratum corneum [5]: slight elevation

From patent publication US20210259981A1, “COMPOSITIONS AND METHODS OF TREATMENT” (Blueberry Therapeutics Limited, priority 2018, published 2021)
